# Assay results from patent US12503438B2, “Compounds for the treatment of kinase-dependent disorders” (Exelixis, Inc., priority 2019, dated 2025).
# Biological target: KDR (Homo sapiens, UniProt P35968)
# Experiment: Human KDR kinase assay (33P-phosphoryl transfer radiometric, KinaseProfiler)
# Parameters: Human KDR (residues K790-V1356, 55 nM); purchased Eurofins Pharma Discovery Services UK Limited (KinaseProfiler service)
# Conditions: biochemical activity; 10 μM ATP
# Method: Kinase activity and compound inhibition were investigated using the ^33P-Phosphoryl transfer radiometric kinase assay, performed using the KinaseProfiler™ service of Eurofins Pharma Discovery Services UK Limited. Dose-response experiments were performed using nine compound concentrations in a 96-well microtiter plate. For each assay, all compounds were prepared to a 50× final assay concentration (50 μM) in 100% DMSO, then diluted in a half-log series, with the final top concentration at 1 μM. This working stock of the compound was added to the assay well as the first component in the reaction, followed by the remaining components as detailed in the following assay protocols below. The positive control wells (100% kinase activity) contain all components of the reaction including 2% DMSO (control for solvent effects), except the compound of interest. Blank wells contain all components of the reaction, with the reference inhibitor, staurosporine. This reference compound was used to abolish kinase activity and generated the 0% kinase activity base-line. IC50 values were calculated by nonlinear regression analysis using the sigmoidal dose-response (variable slope) curve fit on XLFit version 5.3 (ID Business Solutions).
# Human KDR (residues K790-V1356, 55 nM) was incubated with 8 mM MOPS pH 7.0, 0.2 mM EDTA, 0.33 mg/mL myelin basic protein, 10 mM magnesium acetate, and 10 μM [γ-^33P-ATP]. The reaction was initiated by the addition of the Mg/ATP mix. After incubation for 40 minutes at room temperature, the reaction was stopped by the addition of phosphoric acid to a concentration of 0.5%. A reaction aliquot of 10 μL was then spotted onto a P30 filtermat and washed four times for 4 minutes in 0.425% phosphoric acid and once in methanol prior to drying and scintillation counting. Incorporated ^33P was measured using the Wallac Microbeta scintillation counter (Perkin Elmer).
# Sequence of KDR (P35968 790-1356): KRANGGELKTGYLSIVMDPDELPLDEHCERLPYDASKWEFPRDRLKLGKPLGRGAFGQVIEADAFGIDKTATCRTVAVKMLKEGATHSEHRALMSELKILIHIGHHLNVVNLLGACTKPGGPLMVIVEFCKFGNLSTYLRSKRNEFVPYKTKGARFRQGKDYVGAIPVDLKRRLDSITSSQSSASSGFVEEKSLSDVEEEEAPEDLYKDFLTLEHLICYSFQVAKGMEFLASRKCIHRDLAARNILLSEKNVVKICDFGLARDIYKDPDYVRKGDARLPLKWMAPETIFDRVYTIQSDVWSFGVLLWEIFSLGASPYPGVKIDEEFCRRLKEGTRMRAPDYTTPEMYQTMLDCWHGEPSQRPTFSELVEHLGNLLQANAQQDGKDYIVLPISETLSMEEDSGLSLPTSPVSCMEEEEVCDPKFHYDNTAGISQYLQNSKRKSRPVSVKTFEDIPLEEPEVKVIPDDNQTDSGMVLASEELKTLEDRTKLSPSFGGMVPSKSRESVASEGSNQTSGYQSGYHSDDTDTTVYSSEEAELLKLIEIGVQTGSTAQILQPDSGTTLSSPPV
row,Structure (SMILES),IC50
1,"O=C(Nc1ccc(F)cc1)C1(C(=O)Nc2ccc(Oc3ccnc4cc(-c5cnn[nH]5)ccc34)cc2)CC1 [Compound 65, 1-N′-(4-Fluorophenyl)-1-N-[4-[7-(1H-triazol-5-yl)quinolin-4-yl]oxyphenyl]cyclopropane-1,1-dicarboxamide]",100 to 1000 nM
2,"O=C(Nc1ccc(F)cc1)C1(C(=O)Nc2ccc(Oc3ccnc4cc(-c5ccnnc5)ccc34)cc2)CC1 [Compound 28, 1-N′-(4-Fluorophenyl)-1-N-[4-(7-pyridazin-4-ylquinolin-4-yl)oxyphenyl]cyclopropane-1,1-dicarboxamide]",10 to 100 nM
3,"CN(C(=O)C1(C(=O)Nc2ccc(Oc3ccnc4cc(-c5cnn(C)c5)ccc34)cc2)CC1)c1ccc(F)cc1 [Compound 82A, 1-N′-(4-Fluorophenyl)-1-N′-methyl-1-N-[4-[7-(1-methylpyrazol-4-yl)quinolin-4-yl]oxyphenyl]cyclopropane-1,1-dicarboxamide]",100 to 1000 nM
4,"CNC(=O)c1cc2c(Oc3ccc(NC(=O)C4(C(=O)Nc5ccc(F)cc5)CC4)cc3)ccnc2cc1-c1cnn(C)c1 [Compound 77, 1-N′-(4-Fluorophenyl)-1-N-[4-[6-(methylcarbamoyl)-7-(1-methylpyrazol-4-yl)quinolin-4-yl]oxyphenyl]cyclopropane-1,1-dicarboxamide]",10 to 100 nM
5,"CN1CCC(n2cc(-c3ccc4c(Oc5ccc(NC(=O)C6(C(=O)Nc7ccc(F)cc7)CC6)cc5)ccnc4c3)cn2)CC1 [Compound 61, 1-N′-(4-Fluorophenyl)-1-N-[4-[7-[1-(1-methylpiperidin-4-yl)pyrazol-4-yl]quinolin-4-yl]oxyphenyl]cyclopropane-1,1-dicarboxamide]",10 to 100 nM
6,"Cc1noc(C)c1-c1ccc2c(Oc3ccc(NC(=O)C4(C(=O)Nc5ccc(F)cc5)CC4)cc3)ccnc2c1 [Compound 53, 1-N-[4-[7-(3,5-Dimethyl-1,2-oxazol-4-yl)quinolin-4-yl]oxyphenyl]-1-N′-(4-fluorophenyl)cyclopropane-1,1-dicarboxamide]",10 to 100 nM
7,"Cc1cc(F)cc(C)c1NC(=O)C1(C(=O)Nc2ccc(Oc3ccnc4cc(-c5cnn(C)c5)ccc34)cc2)CC1 [Compound 82, 1-N′-(4-Fluoro-2,6-dimethylphenyl)-1-N-[4-[7-(1-methylpyrazol-4-yl)quinolin-4-yl]oxyphenyl]cyclopropane-1,1-dicarboxamide]",10 to 100 nM
8,"Cn1ccc(-c2ccc3c(Oc4ccc(NC(=O)C5(C(=O)Nc6ccc(F)cc6)CC5)cc4)ccnc3c2)n1 [Compound 17, 1-N′-(4-Fluorophenyl)-1-N-[4-[7-(1-methylpyrazol-3-yl)quinolin-4-yl]oxyphenyl]cyclopropane-1,1-dicarboxamide]",10 to 100 nM

# The next lines start with the values.
row,IC50,Structure (SMILES)
1,10 to 100 nM,"COCCn1cc(-c2ccc3c(Oc4ccc(NC(=O)C5(C(=O)Nc6ccc(F)cc6)CC5)cc4)ccnc3c2)cn1 [Compound 10, 1-N′-(4-Fluorophenyl)-1-N-[4-[7-[1-(2-methoxyethyl)pyrazol-4-yl]quinolin-4-yl]oxyphenyl]cyclopropane-1,1-dicarboxamide]"
2,10 to 100 nM,"CCn1cc(-c2ccc3c(Oc4ccc(NC(=O)C5(C(=O)Nc6ccc(F)cc6)CC5)cc4)ccnc3c2)cn1 [Compound 20, 1-N-[4-[7-(1-Ethylpyrazol-4-yl)quinolin-4-yl]oxyphenyl]-1-N′-(4-fluorophenyl)cyclopropane-1,1-dicarboxamide]"
3,10 to 100 nM,"CC(C)(C)n1cc(-c2ccc3c(Oc4ccc(NC(=O)C5(C(=O)Nc6ccc(F)cc6)CC5)cc4)ccnc3c2)cn1 [Compound 23, 1-N-[4-[7-(1-tert-Butylpyrazol-4-yl)quinolin-4-yl]oxyphenyl]-1-N′-(4-fluorophenyl)cyclopropane-1,1-dicarboxamide]"
4,10 to 100 nM,"Cn1cc(-c2ccc3c(Oc4ccc(NC(=O)C5(C(=O)Nc6ccc(F)cc6)CC5)cc4)ccnc3c2)cn1 [Compound 11, 1-N′-(4-Fluorophenyl)-1-N-[4-[7-(1-methylpyrazol-4-yl)quinolin-4-yl]oxyphenyl]cyclopropane-1,1-dicarboxamide]"
5,10 to 100 nM,"O=C(Nc1ccc(F)cc1)C1(C(=O)Nc2ccc(Oc3ccnc4cc(-c5cnn(CC(F)(F)F)c5)ccc34)cc2)CC1 [Compound 16, 1-N′-(4-Fluorophenyl)-1-N-[4-[7-[1-(2,2,2-trifluoroethyl)pyrazol-4-yl]quinolin-4-yl]oxyphenyl]cyclopropane-1,1-dicarboxamide]"
6,10 to 100 nM,"O=C(Nc1ccc(F)cc1)C1(C(=O)Nc2ccc(Oc3ccnc4cc(-c5cnn(CCF)c5)ccc34)cc2)CC1 [Compound 14, 1-N-[4-[7-[1-(2-Fluoroethyl)pyrazol-4-yl]quinolin-4-yl]oxyphenyl]-1-N′-(4-fluorophenyl)cyclopropane-1,1-dicarboxamide]"
7,10 to 100 nM,"O=C(Nc1ccc(F)cc1)C1(C(=O)Nc2ccc(Oc3ccnc4cc(-c5cnn(C(F)F)c5)ccc34)cc2)CC1 [Compound 13, 1-N-[4-[7-[1-(Difluoromethyl)pyrazol-4-yl]quinolin-4-yl]oxyphenyl]-1-N′-(4-fluorophenyl)cyclopropane-1,1-dicarboxamide]"
8,10 to 100 nM,"O=C(Nc1ccc(F)cc1)C1(C(=O)Nc2ccc(Oc3ccnc4cc(-c5cnn(CC(F)F)c5)ccc34)cc2)CC1 [Compound 15, 1-N-[4-[7-[1-(2,2-Difluoroethyl)pyrazol-4-yl]quinolin-4-yl]oxyphenyl]-1-N′-(4-fluorophenyl)cyclopropane-1,1-dicarboxamide]"
9,10 to 100 nM,"O=C(Nc1ccc(F)cc1)C1(C(=O)Nc2ccc(Oc3ccnc4cc(-c5cnn(C(F)(F)F)c5)ccc34)cc2)CC1 [Compound 12, 1-N′-(4-Fluorophenyl)-1-N-[4-[7-[1-(trifluoromethyl)pyrazol-4-yl]quinolin-4-yl]oxyphenyl]cyclopropane-1,1-dicarboxamide]"
10,≤ 10 nM,"O=C(Nc1ccc(F)cc1)C1(C(=O)Nc2ccc(Oc3ccnc4cc(-c5cncnc5)ccc34)cc2)CC1 [Compound 27, 1-N′-(4-Fluorophenyl)-1-N-[4-(7-pyrimidin-5-ylquinolin-4-yl)oxyphenyl]cyclopropane-1,1-dicarboxamide]"
11,10 to 100 nM,"O=C(Nc1ccc(F)cc1)C1(C(=O)Nc2ccc(Oc3ccnc4cc(-c5cnn(C6CC6)c5)ccc34)cc2)CC1 [Compound 22, 1-N-[4-[7-(1-Cyclopropylpyrazol-4-yl)quinolin-4-yl]oxyphenyl]-1-N′-(4-fluorophenyl)cyclopropane-1,1-dicarboxamide]"
